The source of these data is BindingDB's records for doi:10.1016/j.bmcl.2015.06.096 (Vanderbilt University Medical Center, 2015).

The structures appear in SMILES notation.

For this test, the target named is Metabotropic glutamate receptor 5 (Homo sapiens, UniProt P41594). Kind of test: Positive allosteric modulation of human mGlu5 receptor expressed in HEK293 cells by calcium mobilization assay. (In general: Calcium assays in cells follow changes in intracellular calcium, usually with a dye or a luminescent sensor.)
Metabotropic glutamate receptor 5, sequence (P41594 whole entry): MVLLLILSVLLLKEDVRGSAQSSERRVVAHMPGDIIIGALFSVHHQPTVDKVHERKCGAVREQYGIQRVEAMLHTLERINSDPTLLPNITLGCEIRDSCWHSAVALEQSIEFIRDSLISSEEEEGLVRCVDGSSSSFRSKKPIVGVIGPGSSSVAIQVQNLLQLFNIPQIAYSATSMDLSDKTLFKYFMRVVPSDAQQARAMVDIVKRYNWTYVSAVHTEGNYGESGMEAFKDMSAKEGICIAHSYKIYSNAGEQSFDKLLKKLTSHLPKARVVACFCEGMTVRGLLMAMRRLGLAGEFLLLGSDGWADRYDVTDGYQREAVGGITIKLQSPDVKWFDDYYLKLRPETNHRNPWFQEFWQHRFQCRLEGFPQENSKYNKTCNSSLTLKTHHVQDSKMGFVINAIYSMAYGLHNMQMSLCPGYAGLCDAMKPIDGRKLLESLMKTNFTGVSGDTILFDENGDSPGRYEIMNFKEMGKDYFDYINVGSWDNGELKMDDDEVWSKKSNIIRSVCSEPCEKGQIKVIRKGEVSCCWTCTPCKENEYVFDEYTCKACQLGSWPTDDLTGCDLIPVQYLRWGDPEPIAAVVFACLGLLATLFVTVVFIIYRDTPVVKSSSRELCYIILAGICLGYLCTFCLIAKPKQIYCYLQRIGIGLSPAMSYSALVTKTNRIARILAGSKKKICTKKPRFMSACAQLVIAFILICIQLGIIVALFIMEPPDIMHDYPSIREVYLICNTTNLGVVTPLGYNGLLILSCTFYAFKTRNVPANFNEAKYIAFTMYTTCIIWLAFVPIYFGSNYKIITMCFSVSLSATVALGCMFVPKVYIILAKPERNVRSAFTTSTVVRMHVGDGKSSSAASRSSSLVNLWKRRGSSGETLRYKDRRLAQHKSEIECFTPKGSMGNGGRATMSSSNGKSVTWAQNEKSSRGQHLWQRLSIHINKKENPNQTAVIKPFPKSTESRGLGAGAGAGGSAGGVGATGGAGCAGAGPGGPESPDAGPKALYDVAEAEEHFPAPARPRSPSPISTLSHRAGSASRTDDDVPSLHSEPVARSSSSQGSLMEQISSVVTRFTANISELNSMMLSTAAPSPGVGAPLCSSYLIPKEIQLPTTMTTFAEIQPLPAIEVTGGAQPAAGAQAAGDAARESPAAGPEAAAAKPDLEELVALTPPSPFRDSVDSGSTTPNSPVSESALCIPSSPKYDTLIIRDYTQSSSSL

In general, EC50 refers to the concentration that produces a half-maximal response. `O=C(c1c(F)cccc1F)N1CCc2nc(COc3cccc(F)c3)oc2C1`: the EC50 is 323 nM.
